# Measurements as given in US20170327536A1, “NEUROTOXIC TARGET FOR AMYLOSPHEROID, METHOD AND MATERIAL FOR REDUCING THE NEUROTOXICITY OF AMYLOSPHEROID, AND USE THEREOF” (TAO Health Life Pharma Co., Ltd., priority 2011, published 2017).
# Tests used:
# ASPD = ASPD (Homo sapiens, UniProt P05067); assay: Surface plasmon resonance (SPR), biotinylated AAT peptide on chip, ASPD as ligand; format: binding; details: peptide solid phase on chip
# Excerpt: Biotin was bound to each C-terminal side of the above-mentioned AAT peptides 01 to […] and made into a solid phase on a chip, and a dissociation constant was obtained by surface plasmon resonance (SPR) using ASPD as a ligand.
# [1] = target: T1, 105 kDa band (Na+/K+-ATPase α3) (Rattus norvegicus, UniProt P06687); assay: Far-western blotting of cell extracts; format: binding; details: extracts of neurons and HEK293 cells; detection with haASD1 (ASPD) or 6E10 (Aβ monomer)
# T1 construct: endogenous in cells; host or cells: rat hippocampus-derived primary cultured neurons (mature)
# Protocol: Extracts were prepared with RadioImmunoPrecipitation Assay (RIPA) respectively from the rat hippocampus-derived primary cultured neurons (number of culture days shown in FIG. 4) and the HEK293 cells, and protein amounts of the extracts were determined. Then, predetermined amounts of the extracts were subjected to electrophoresis with SDS-PAGE and transcribed to a nitrocellulose membrane, and reacted with native ASPD or an Aβ monomer for a predetermined period of time. The binding of the native ASPD was detected with anti-ASPD antibodies haASD1, and the binding of the Aβ monomer was detected with 6E10 that was commercially available anti-Aβ monomer antibodies (far-western blotting).
# Thus, the synthetic ASPD is considered to be equivalent to the native ASPD, and after that, analysis was carried out using the synthetic ASPD.
# [2] = system: mature rat hippocampus-derived primary cultured neurons; assay: Inhibition effect of AAT peptides on ASPD apoptotic activity (neutralization); format: cell-based; details: 4 μM synthetic ASPD, 24 hours; for inhibition effect on ASPD apoptotic activity compared with AAT01: 0.14 μM peptide, FIG. 19
# Protocol: Based on the fact that anti-ASPD antibodies bind to ASPD to inhibit interaction between ASPD and NAKα3 that is a target molecule to suppress death of neurons, a peptide having similar effect was searched. For this purpose, ASPD immobilized to a microtiter plate was screened through use of (commercially available) phage display library in which a library of random 12 amino acids was expressed on a virus surface, and a converged sequence was analyzed. […] A peptide having neutralization activity was named as an Anti-AD toxicity (AAT) peptide.
# The apoptotic activity was measured 24 hours later and compared with that of a control to which the AAT peptide has not been administered, whereby the inhibition activity was calculated.
# Chain of ASPD (P05067 672-713 limits assumed): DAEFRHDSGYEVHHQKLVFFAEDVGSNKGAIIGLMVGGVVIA
compound,measurement,setting,value
CC(C)C[C@H](NC(=O)[C@H](CC(N)=O)NC(=O)[C@H](Cc1ccc(O)cc1)NC(=O)[C@H](Cc1c[nH]c2ccccc12)NC(=O)[C@H](CC(N)=O)NC(=O)[C@H](Cc1ccccc1)NC(=O)[C@@H](N)Cc1c[nH]cn1)C(=O)N[C@@H](Cc1c[nH]c2ccccc12)C(=O)N[C@@H](CCCNC(=N)N)C(=O)N[C@H](C(=O)N[C@@H](CCC(N)=O)C(=O)N[C@@H](Cc1ccc(O)cc1)C(=O)N[C@@H](CCCCNC(=O)CCCC[C@@H]1SC[C@@H]2NC(=O)N[C@@H]21)C(N)=O)C(C)C [C-terminal biotinylated AAT01],ka,ASPD,7.64 × 10^3
same,kd,ASPD,4.41 × 10^-4
CC(C)C[C@H](NC(=O)[C@@H](N)Cc1c[nH]cn1)C(=O)N[C@@H](CC(N)=O)C(=O)N[C@@H](Cc1c[nH]c2ccccc12)C(=O)N[C@@H](Cc1c[nH]c2ccccc12)C(=O)N[C@@H](Cc1c[nH]cn1)C(=O)N[C@@H](CO)C(=O)N[C@@H](Cc1c[nH]c2ccccc12)C(=O)N[C@@H](Cc1ccc(O)cc1)C(=O)N1CCC[C@H]1C(=O)N[C@@H](C)C(=O)N[C@@H](CCCNC(=N)N)C(=O)N[C@@H](CCCCNC(=O)CCCC[C@@H]1SC[C@@H]2NC(=O)N[C@@H]21)C(N)=O [C-terminal biotinylated AAT02],ka,ASPD,5.60 × 10^3
same,kd,ASPD,4.62 × 10^-4
CC(C)C[C@H](NC(=O)[C@H](Cc1c[nH]c2ccccc12)NC(=O)[C@H](CC(N)=O)NC(=O)[C@H](CC(C)C)NC(=O)[C@@H](N)Cc1c[nH]cn1)C(=O)N[C@@H](CO)C(=O)N[C@@H](Cc1c[nH]c2ccccc12)C(=O)N[C@@H](Cc1ccccc1)C(=O)N1CCC[C@H]1C(=O)N[C@@H](CO)C(=O)N[C@@H](CCCNC(=N)N)C(=O)N[C@@H](Cc1c[nH]cn1)C(=O)N[C@@H](CCCCNC(=O)CCCC[C@@H]1SC[C@@H]2NC(=O)N[C@@H]21)C(N)=O [C-terminal biotinylated AAT03],ka,ASPD,4.96 × 10^3
same,kd,ASPD,4.39 × 10^-4
Aβ monomer: peptide cleaved from amyloid precursor protein (APP) with β- and γ-secretase,binding to 105 kDa band in far-western blotting,[1],did not bind to the band
HFNW (ASPD-interacting motif/peptide) [AAT06],inhibition effect on ASPD apoptotic activity compared with AAT04,"[2]; 2.8 μM peptide, FIG. 20",equal to or higher than that of the AAT04
HFNWD (ASPD-interacting motif/peptide) [AAT04],inhibition effect on ASPD apoptotic activity compared with AAT01,[2],equal to or more than that of the AAT01
HFNWDW (ASPD-interacting motif/peptide) [AAT05],inhibition effect on ASPD apoptotic activity compared with AAT01,[2],equal to or more than that of the AAT01
